Data taken from article PMC6539868, “Syntheses and Biological Studies of Cu(II) Complexes Bearing Bis(pyrazol-1-yl)- and Bis(triazol-1-yl)-acetato Heteroscorpionate Ligands” (Molecules, 2019).
Read-outs that look alike come from different tables or passages of the source.

Columns and labels:
2008 = test: MTT cytotoxicity assay, 2D monolayer; format: cell-based, human; conditions: 72 h, MTT test, ovarian cancer, read-out: IC50 (µM) ± S.D. 2008
From the text: (§1) Human lung (A549), colon (HCT-15 and LoVo) and breast (MCF-7) carcinoma cell lines were obtained from American Type Culture Collection (ATCC, Rockville, MD, USA). Human pancreatic BxPC3 carcinoma cells were obtained from European Collection of Cell Culture (ECACC, Salisbury, UK). Human ovarian 2008 cancer cells were kindly provided by Prof. G. Marverti (Dept. of Biomedical Science of Modena University, Modena, Italy). Human squamous cervical A431 carcinoma cells were kindly provided by Prof. F. Zunino (Division of Experimental Oncology B, Istituto Nazionale dei Tumori, Milan, Italy). The LoVo-OXP cells were obtained as previously described. Cell lines were maintained in culture in the logarithmic phase at 37 °C in a 5% carbon dioxide atmosphere using the following media added of 10% fetal calf serum (Euroclone, Milan, Italy), antibiotics (50 units/mL penicillin and 50 μg/mL streptomycin), and 2 mM L-glutamine: (i) RPMI-1640 medium (Euroclone) for HCT-15, A431, MCF-7, BxPC3 and 2008 cells; (ii) F-12 HAM’S (Sigma Chemical Co.) for A549, LoVo and LoVo-OXP cells.
(§2) The growth inhibitory effect towards 2D tumor cell lines was evaluated by means of MTT assay as previously described. IC50 values were calculated by four parameters logistic (4-PL) model. All the values are the means ± SD of not less than five measurements starting from three different cell cultures.
(§3) The in vitro antitumor activity of copper(II) complexes 1–3 and the uncoordinated ligands [HC(COOH)(pz^Me2)2], [HC(COOH)(pz)2] and [HC(COOH)(tz)2] was evaluated against a panel of human cancer cell lines derived from solid tumors. Adherent cell lines representative of cervical (A431), pancreatic (BxPC3) colon (HCT-15), breast (MCF-7), lung (A549), and ovarian (2008) cancers, differently sensitive to cisplatin, were exposed to the indicated compounds for 72 h.

A431 = test: MTT cytotoxicity assay, 2D monolayer; format: cell-based, human; conditions: 72 h, MTT test, cervical carcinoma; read-out: IC50 (µM) ± S.D. A431
From the text: as §1, §2, §3

A549 = test: MTT cytotoxicity assay, 2D monolayer; format: cell-based, human; conditions: 72 h, MTT test, lung carcinoma, read-out: IC50 (µM) ± S.D. A549
From the text: as §1, §2, §3

BxPC3 = test: MTT cytotoxicity assay, 2D monolayer; format: cell-based, human; conditions: 72 h, MTT test, pancreatic carcinoma; read-out: IC50 (µM) ± S.D. BxPC3
From the text: as §1, §2, §3

HCT-15 = test: MTT cytotoxicity assay, 2D monolayer; format: cell-based, human; conditions: 72 h, MTT test, colon carcinoma, read-out: IC50 (µM) ± S.D. HCT-15
From the text: as §1, §2, §3

MCF-7 = test: MTT cytotoxicity assay, 2D monolayer; format: cell-based, human; conditions: 72 h, MTT test, breast carcinoma, read-out: IC50 (µM) ± S.D. MCF-7
From the text: as §1, §2, §3

[1] = test system: HCT-15 colon cancer cell spheroids; test: Acid phosphatase (APH) assay in 3D spheroids; format: cell-based, human; conditions: 72 h, APH test, read-out: IC50 (µM) ± S.D. HCT-15 spheroids
Protocol: Spheroid cultures were obtained by seeding 2.5 × 10^3 HCT-15 cells/well in round bottom non-tissue culture treated 96 well-plate (Greiner Bio-one, Kremsmünster, Austria) in phenol red free RPMI-1640 medium (Sigma Chemical Co.), containing 10% FCS and supplemented with 20% methyl cellulose stock solution.
An APH modified assay was used for determining cell viability in 3D spheroids, as previously described. IC50 values were calculated with a four parameter logistic (4-PL) model. All the values are the means ± SD of not less than four independent experiments.
The in vitro antitumor efficacy of the newly developed compounds was also tested on 3D colon cancer cell culture models. Differently from 2D monolayer culture, 3D spheroid cell culture systems comprise cancer cells in various cell growth stages. Consequently, the multicellular cancer spheroid model is recognized to better reflect the tumor mass in vivo regarding drug permeation, cell interactions, gene expression, hypoxia and nutrient gradients with respect to monolayer cell cultures. Table 4 summarizes the IC50 values obtained after treatment of 3D cell spheroids of human HCT-15 colon cancer cells with copper(II) compounds as well as with cisplatin, as reference drug. In accordance with 2D chemosensitivity assays, complex 3 was scarcely effective, whereas complex 1 was as effective as cisplatin. […] We hypothesize that in this non-proliferative and very resistant tumor model the higher lipophilicity of 1, due to the presence of methyl substituents on the pyrazolyl rings, might be responsible for the enhanced compound penetration in the core area of spheroids.

[2] = test system: panel of human cancer cell lines derived from solid tumors; test: MTT cytotoxicity, whole panel of human cancer cell lines; format: cell-based; conditions: mean over the cell lines of Table 2, 72 h
Protocol: as §2, §3
(§4) HCT-15 colon cancer cells are notoriously poorly chemosensitive to cisplatin. […] As for cisplatin, the clinical effectiveness of OXP is seriously hampered by the cancer cell resistance and, at present, few other drug regimens are available for patients with OXP-refractory colorectal cancers. […] The RF values (calculated by dividing IC50 for resistant cells by those for sensitive ones) were about 10 times lower than that of OXP, excluding the occurrence of cross-resistance phenomena.

LoVo-OXP = test: MTT cytotoxicity assay, cross-resistance profile; format: cell-based, human; conditions: for IC50: 72 h, MTT test, oxaliplatin-resistant colon cancer cells, read-out: IC50 (µM) ± S.D. LoVo-OXP; for RF (resistance factor): RF = IC50 (resistant cells)/IC50 (wild-type cells)
From the text: as §1, §2, §4

LoVo = test: MTT cytotoxicity assay, cross-resistance profile; format: cell-based, human; conditions: 72 h, MTT test, oxaliplatin-sensitive colon cancer cells; read-out: IC50 (µM) ± S.D. LoVo
From the text: as §1, §2, §4

[3] = test system: 26S proteasome, chymotrypsin-like (CT-L) activity; test: Proteasome inhibition, chymotrypsin-like (CT-L) activity; format: biochemical; conditions: isolated 26S rabbit proteasomes, 15 μM, 60 min
Protocol: (§5) The purified rabbit 26S proteasome (Sigma Aldrich) was incubated for 60 min at 37 °C in assay buffer (50 mM Tris-HCl, pH 7.5, 250 mM sucrose, 5 mM MgCl2, 1 mM DTT, and 0.5 mM EDTA), in the presence of 15 µM of 1–3 or 10 µM Lactacystin. Afterwards, fluorogenic peptides were added and substrate hydrolysis was measured after 30 min by monitoring spectrofluorometrically the release of AMC (excitation at 370 nm, emission at 460 nm).
(§6) The ability of copper complexes to hamper the functioning of each individual proteasome active site, chymotrypsin-like (CT-L), trypsin-like (T-L), and caspase-like (C-L) activities was assessed in isolated 26S rabbit proteasomes after incubation with 15 μM of tested compounds. Lactacystin, an irreversible nonpeptidomimetic proteasome inhibitor, was used as a positive control. […] Conversely, no significant effects were recorded towards the T-L site. Even if the chymotrypsin-like sites are the major drug targets in cancer, it has been recently observed that co-targeting trypsin-like site increased cytotoxicity of copper complexes acting as proteasome inhibitors.

[4] = test system: 26S proteasome, caspase-like (C-L) activity; test: Proteasome inhibition, caspase-like (C-L) activity; format: biochemical; conditions: isolated 26S rabbit proteasomes, 15 μM, 60 min
Protocol: as §5, §6

Solubility = format: physicochemical
Stability to air = format: physicochemical; conditions: also as solutions
LoVo cells = test: Cellular uptake (intracellular copper by GF-AAS); format: cell-based, human; conditions: 24 h, 2 μM
Protocol: LoVo cells (2.5 × 10^6) were seeded in 75 cm^2 flasks in growth medium (20 mL). After overnight incubation, the medium was replaced, and the cells were treated with tested compounds for 24 h. Cell monolayers were then processed and mineralized as previously described. The sample was analyzed for copper by using a Varian AA Duo graphite furnace atomic absorption spectrometer (Varian, Palo Alto, CA, USA) at the wavelength of 324 nm. The calibration curve was obtained using known concentrations of standard solutions purchased from Sigma Chemical Co.
With the purpose of underling a possible correlation between cellular uptake efficiency and cytotoxicity, LoVo cells were treated for 24 h with equimolar concentrations (2 μM) of copper(II) complexes and the intracellular copper amount was quantified by means of Graphite Furnace Atomic Absorption Spectrometry (GF-AAS) analysis. […] In fact, the intracellular copper content detected in LoVo cells follows the same cytotoxicity trend 1 > 2 > 3.

| Structure (SMILES) | IC50 2008 | IC50 (A431) | IC50 (A549) | IC50 (BxPC3) | IC50 (HCT-15) | IC50 (MCF-7) | IC50 [1] | IC50 (LoVo-OXP) | RF (resistance factor) (LoVo-OXP; LoVo-OXP/LoVo) | IC50 (LoVo) | IC50 (2008; Homo sapiens) | IC50 (A549; Homo sapiens, A549) | IC50 (HCT-15; Homo sapiens, HCT-15) | IC50 (MCF-7; Homo sapiens, MCF7) | also measured |
| --- | --- | --- | --- | --- | --- | --- | --- | --- | --- | --- | --- | --- | --- | --- | --- |
| N.N.[Cl][Pt][Cl] [Cisplatin, cisplatin, reference compound] | 2.2 ± 1 µM | 1.7 ± 0.5 µM | 7.5 ± 1.2 µM | 7.3 ± 1.2 µM | 15.3 ± 2.2 µM | 8.8 ± 1.4 µM | 65.9 ± 3.85 µM |  |  |  |  |  |  |  | IC50 [2]: 7.1 µM |
| O=C1[O][Pt]2([NH][C@@H]3CCCC[C@H]3[NH]2)[O]C1=O [Oxaliplatin, oxaliplatin, reference compound] |  |  |  |  |  |  |  | 15.2 ± 2.2 µM | 10.9 | 1.4 ± 0.7 µM |  |  |  |  |  |
| O=C(O)C(n1cccn1)n1cccn1 [[HC(COOH)(pz)2], bis(pyrazol-1-yl)acetic acid, reference compound] |  |  |  |  |  |  |  |  |  |  | > 100 µM | > 100 µM | > 100 µM | > 100 µM |  |
| Cc1cc(C)n(C(C(=O)O)n2nc(C)cc2C)n1 [[HC(COOH)(pz^Me2)2], bis(3,5-dimethylpyrazol-1-yl)acetic acid, reference compound] |  |  |  |  |  |  |  |  |  |  | > 100 µM | > 100 µM | > 100 µM | > 100 µM |  |
| O=C(O)C(n1cncn1)n1cncn1 [[HC(COOH)(tz)2], bis(1,2,4-triazol-1-yl)acetic acid, reference compound] |  |  |  |  |  |  |  |  |  |  | > 100 µM | > 100 µM | > 100 µM | > 100 µM |  |
| O=C(O)C(n1cccn1)n1cccn1.O=C(O)C(n1cccn1)n1cccn1.[Cu+2].[O-][Cl+3]([O-])([O-])[O-].[O-][Cl+3]([O-])([O-])[O-] [compound 2, [HC(COOH)(pz)2]2Cu(ClO4)2] | 7.9 ± 1.4 µM | 12.7 ± 1.2 µM | 5.5 ± 0.2 µM | 7.5 ± 1.2 µM | 9.3 ± 2.7 µM | 10.2 ± 2.5 µM | 107.8 ± 1 µM | 4.9 ± 0.6 µM | 1.2 | 4 ± 0.5 µM |  |  |  |  | RF times lower than that of OXP (LoVo-OXP; LoVo-OXP/LoVo): about 10 times; IC50 [2]: 8.9 µM; effect on CT-L proteasome activity [3]: able to affect CT-L and C-L activities, even if to a lesser extent than lactacystin; effect on C-L proteasome activity [4]: able to affect CT-L and C-L activities, even if to a lesser extent than lactacystin; solubility in methanol, DMSO and acetonitrile (Solubility; methanol, DMSO, acetonitrile): soluble; solubility in water (Solubility; water): soluble; air stability (Stability to air): air stable even as solutions |
| CO.O=C(O)C(n1cncn1)n1cncn1.O=C(O)C(n1cncn1)n1cncn1.[Cu+2].[O-][Cl+3]([O-])([O-])[O-].[O-][Cl+3]([O-])([O-])[O-] [compound 3, [HC(COOH)(tz)2]2Cu(ClO4)2·CH3OH] | 69.3 ± 4.7 µM | 15.9 ± 5.8 µM | 24.5 ± 1.9 µM | 18.5 ± 4.4 µM | 59.5 ± 2.7 µM | 39.6 ± 4.6 µM | > 100 µM | 32.5 ± 1 µM | 2.1 | 15.3 ± 1 µM |  |  |  |  | cellular uptake efficiency (intracellular copper amount) (LoVo cells): lowest cellular uptake efficiency; effect on CT-L proteasome activity [3]: able to affect CT-L and C-L activities, even if to a lesser extent than lactacystin; effect on C-L proteasome activity [4]: able to affect CT-L and C-L activities, even if to a lesser extent than lactacystin; solubility in DMSO (Solubility; DMSO): soluble; air stability (Stability to air): air stable even as solutions |
